Assays:
[1] = test system: wild-type P. aeruginosa PA14; experiment: microbe, parasite or virus in culture; format: cell-based
Summary of the method: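 PA14 cultures diluted 1:1000, grown aerobically 17 h at 37° C with shaking with compound at 100 μM (end point) or 200 nM–200 μM (titration). Pyocyanin in filtered cell-free fluid read at 695 nm; efficacy 0% at WT level, 100% at medium background; IC50 from variable-slope sigmoidal fit.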

[2] = test system: A549 human lung cells infected with P. aeruginosa PA14; experiment: A549 human lung cell infection (propidium iodide uptake); format: cell-based; conditions: wild-type and lasR mutant strains; 100 μM compound
Procedure: Methods. Human A549 cells were grown in CellStar tissue culture flasks. Prior to infection, the A549 cells were treated with trypsin-EDTA (CellGro), split, counted, and aliquotted into 96 well plates at 20,000 mammalian cells/well (cell counts were estimated using Trypan Blue (CellGro) exclusion). Cells were grown for 20 hr at 37° C. in DMEM (Invitrogen). Cells were washed 3× with warm PBS (Gibco). 100 μL of “master mix” was added to each well for each condition. Master mix contained 1 mL pre-warmed-PBS, 5 μL of 2 mg/mL propidium iodide (Bioprobes), 1 μL of a 100 mM inhibitor stock or DMSO, and 10 μL of OD600=2 P. aeruginosa PA14 grown in the presence of mBTL or DMSO. Infections were monitored using an EnVision plate reader every 2 hr with the RFP filter supplied by GE.

RhlR = biological target: T1, RhlR (Pseudomonas aeruginosa, UniProt P54292); experiment: RhlR-GFP assay (rhlA-gfp reporter in recombinant E. coli); format: cell-based, P. aeruginosa
T1 construct: expressed in transfected cells; host or cells: E. coli BL21-Gold (DE3) carrying pET23b-rhlR
T1 sequence (P54292 whole entry): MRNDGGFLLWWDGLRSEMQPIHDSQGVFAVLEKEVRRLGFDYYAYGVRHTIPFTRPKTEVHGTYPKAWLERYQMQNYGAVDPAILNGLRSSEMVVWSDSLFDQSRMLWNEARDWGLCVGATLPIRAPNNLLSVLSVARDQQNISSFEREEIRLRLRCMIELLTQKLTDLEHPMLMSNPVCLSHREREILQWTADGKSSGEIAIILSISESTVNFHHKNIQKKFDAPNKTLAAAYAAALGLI
Procedure: Methods. The LasR-GFP assays were performed in E. coli strain BL21 DE3 Gold (Agilent) carrying pET23b (Novagen) containing lasR (maintained with 100 μg/mL ampicillin) and carrying plasmid pEVS141 (31) containing the rsaL promoter driving expression of gfp (maintained with […] of kanamycin.) The RhlR-GFP assays were performed in E. coli strain BL21 DE3 Gold (Agilent) carrying pET23b (Novagen) containing rhlR (maintained with 100 μg/mL ampicillin) and carrying plasmid pEVS141 containing the rhlA promoter driving expression of gfp (maintained with 50 μg/mL of kanamycin.) These E. coli strains were grown overnight and subcultured into fresh medium with appropriate antibiotics at a 1:100 dilution and grown shaking for 8 hr at 37° C. for the LasR-GFP strain and 12 hr for the RhlR-GFP construct. 50 nM 3OC12-HSL or 20 μM C4-HSL was added to the LasR-GFP and RhlR-GFP preparations, respectively. Compounds were tested at 1 mM for antagonism and at 100 nM or 20 μM for agonism. These concentrations were chosen for agonism studies to match the concentrations of autoinducers used in the experiments. For antagonism studies, the EC95 concentration was used for each receptor. GFP was measured on an Envision plate reader.
The LasR-GFP assays were performed in E. coli strain BL21 DE3 Gold (Agilent) carrying pET23b (Novagen) containing lasR (maintained with 100 μg/mL ampicillin) and carrying plasmid pEVS141 (31) containing the rsaL promoter driving expression of gfp (maintained with 50 μg/mL of kanamycin.) The RhlR-GFP assays were performed in E. coli strain BL21 DE3 Gold (Agilent) carrying pET23b (Novagen) containing rhlR (maintained with 100 μg/mL ampicillin) and carrying plasmid pEVS141 (31) containing the rhlA promoter driving expression of gfp (maintained with 50 μg/mL of kanamycin.) These E. coli strains were grown overnight and subcultured into fresh medium with appropriate antibiotics at a 1:100 dilution and grown shaking for 8 hr at 37° C. for the LasR-GFP strain and 12 hr for the RhlR-GFP construct. 50 nM 3OC12-HSL or 20 μM C4-HSL was added to the LasR-GFP and RhlR-GFP preparations, respectively. Compounds were tested at 1 mM for antagonism and at 100 nM or 20 μM for agonism. These concentrations were chosen for agonism studies to match the concentrations of autoinducers used in our experiments. For antagonism studies, we used the EC95 concentration for each receptor. GFP was measured on an Envision plate reader.

P. aeruginosa PA14 [3] = experiment: Growth of P. aeruginosa monitored by absorbance at 600 nm; format: cell-based
P. aeruginosa PA14 [4] = experiment: C. elegans fast killing infection assay; format: in vivo
Procedure: Methods. C. elegans fast killing assays were conducted with 90 wild-type N2 worms for each condition (30 worms/replicate, 3 replicates performed). C. elegans were propagated on NGM plates prior to eggs being harvested from gravid adults using a standard bleaching protocol (30 mL 5% bleach, 15 mL 5 M KOH, 55 mL dH2O). Harvested eggs were placed on lawns of fresh E. coli HB101 and allowed to grow for 48 hr (to reach the L4 stage) at 20° C. prior to being moved to lawns of P. aeruginosa and placed at 25° C. on sorbitol, glucose, cholesterol plates. Nematodes were scored for survival every hr for 5 hr and again at 24 hr. The % living worms was calculated in triplicate for each time point. 50 μM mBTL or an equivalent volume of DMSO was added to plates and to the bacterial cultures during growth.

meta-bromothiolactone [mBTL]
IC50 ([1]; WT P. aeruginosa PA14, 17 hr growth, titration, read-out: IC50 for inhibition of pyocyanin production): 8 µM
inhibition of pyocyanin production (in words) ([1]; wild-type P. aeruginosa PA14, end point assays at 100 μM): potent inhibition of pyocyanin
killing of A549 cells by P. aeruginosa [2]: reduces killing
inhibition of RhlR activation of rhlA-gfp (antagonism) (RhlR; mBTL at 1 mM, C4-HSL at EC95 (20 μM)): 43%
RhlR partial agonism (gfp expression, cognate autoinducer = 100%) (RhlR; no autoinducer, compound at 20 μM): 80%
effect on P. aeruginosa PA14 growth (P. aeruginosa PA14 [3]): not affecting P. aeruginosa PA14 growth
C. elegans death (P. aeruginosa PA14 [4]; lasR mutant P. aeruginosa PA14 treated with 50 μM mBTL): 50%
C. elegans death (P. aeruginosa PA14 [4]; wild-type P. aeruginosa PA14 treated with 50 μM mBTL): 23%

From patent US9751851B2, “Molecules and compositions that inhibit gram negative bacteria and their uses” (THE TRUSTEES OF PRINCETON UNIVERSITY, priority 2013, dated 2017)
